For one compound, EC50 results are on record in patent US7615560B2, “Thienopyrimidines as cooling agents” (Conopco, Inc., priority 2004, dated 2009).

The structures appear in SMILES notation. pEC50: −log10 of the molar value.

As usually defined, the pEC50 is the EC50 on a negative log10 scale, so that one unit is a factor of ten.

For this experiment, the target named is T1, human TRPM8 channel (Homo sapiens, UniProt Q7Z2W7).
T1 construct: The open reading frame of human cDNA TRPM8 from position 41-3355bp was amplified; expressed in transfected cells
As to the kind of experiment: Intracellular calcium (fluo-4 fluorescence) assay in HEK 293 cells stably expressing human TRPM8. The class given is cell-based. Particulars: fluo-4 calcium fluorescence, concentration producing one-half of maximal response (DFmax). From the text: Humans can detect changes in temperature from noxious cold (<8 C) to noxious heat (>52 C) due to activation of sensory nerve fibers. “The principal temperature sensors in the sensory nerve fibers are members of a family of transient receptor potential (TRP) cation channels” (Voets et al., 2004). In humans the sensation of cooling is elicited by activation of channel TRPM8, which is activated at temperatures below 28 C (Voets et al., 2004). Furthermore human TRPM8 is activated by compounds such as menthol (Brauchi et al., Proc. Natl. Acad. Sci. USA, 2004, Oct. 26; 101 (43):15494-9; Voets et al., Nature, 2004, 430 (7001): 748-54). […]
The open reading frame of human cDNA TRPM8 from position 41-3355bp was amplified from a human prostate cDNA library (Stratagene) using primers […] and […] as previously described previously (Tsavalier et al., 2001). […]
Cells stably expressing the human TRPM8 were seeded in a 96 well plate (coated with polylysine) at a density of 10^5 cells /well in 200 μl of media. […] The dye was then removed and the cells were incubated in a Tyrodes buffer (containing 1 mM probenicide, pH 7.4) pre-equilibrated at a certain temperature (i.e 37° C.) and the intracellular calcium levels were monitored at the same temperature, using the Novostar plate reader. The cells in each well were illuminated at 480 nm, and the fluorescent light emitted at 510 nm was measured. […]
(In general: A change in cytosolic calcium serves as a functional read-out for many receptors and channels.)

T1 sequence (Q7Z2W7 whole entry): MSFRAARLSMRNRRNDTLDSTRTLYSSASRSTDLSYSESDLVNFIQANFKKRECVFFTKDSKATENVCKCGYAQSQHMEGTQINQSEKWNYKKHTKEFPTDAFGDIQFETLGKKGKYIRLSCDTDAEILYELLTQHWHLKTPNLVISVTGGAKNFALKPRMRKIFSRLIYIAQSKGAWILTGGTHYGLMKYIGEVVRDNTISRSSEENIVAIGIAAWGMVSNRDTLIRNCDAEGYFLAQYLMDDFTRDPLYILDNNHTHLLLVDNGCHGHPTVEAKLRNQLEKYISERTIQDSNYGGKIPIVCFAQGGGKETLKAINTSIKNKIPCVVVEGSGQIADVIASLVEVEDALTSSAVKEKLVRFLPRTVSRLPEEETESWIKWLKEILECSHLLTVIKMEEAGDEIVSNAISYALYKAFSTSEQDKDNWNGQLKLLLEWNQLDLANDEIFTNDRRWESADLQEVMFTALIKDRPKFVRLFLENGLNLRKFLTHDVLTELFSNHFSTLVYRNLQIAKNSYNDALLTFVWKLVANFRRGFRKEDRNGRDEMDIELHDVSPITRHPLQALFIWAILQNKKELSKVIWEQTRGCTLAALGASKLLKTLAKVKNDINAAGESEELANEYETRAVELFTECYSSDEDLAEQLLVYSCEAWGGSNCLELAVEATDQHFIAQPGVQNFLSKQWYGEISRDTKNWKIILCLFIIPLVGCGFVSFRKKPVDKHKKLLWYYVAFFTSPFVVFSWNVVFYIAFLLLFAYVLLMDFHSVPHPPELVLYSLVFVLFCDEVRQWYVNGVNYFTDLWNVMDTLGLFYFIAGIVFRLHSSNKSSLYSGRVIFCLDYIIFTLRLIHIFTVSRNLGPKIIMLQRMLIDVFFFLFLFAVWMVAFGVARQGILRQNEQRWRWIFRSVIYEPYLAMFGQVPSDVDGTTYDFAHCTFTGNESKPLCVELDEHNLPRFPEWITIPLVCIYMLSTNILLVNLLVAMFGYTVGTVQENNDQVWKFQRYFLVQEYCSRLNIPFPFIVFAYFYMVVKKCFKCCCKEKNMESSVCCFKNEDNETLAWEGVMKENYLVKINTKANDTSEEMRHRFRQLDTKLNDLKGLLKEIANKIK

For `CCCn1cnc2sc3c(c2c1=N)CCCC3` [Example 1, 3-propyl-5,6,7,8-tetrahydro-3H-benzo[4,5]-thieno[2,3-d]pyrimidin-4-ylidene amine], the negative logarithm of the EC50 (pEC50) is 5.19.
